Assay results as given in patent US5527940A, “Methanediphosphonate derivative, its manufacturing process and its pharmaceutical applications” (Toray Industries, Inc., priority 1991, dated 1996).

Key:
[1] = system: osteoclasts (mouse bone cells), resorption pit formation; assay: Bone resorption pit formation by mouse bone cells (osteoclasts) on ivory, active type-vitamin D3 stimulation; format: cell-based, ICR mice; details: 10 nM active type-vitamin D3, 4 days
Excerpt: The balance between bone formation and bone destruction is disturbed during osteoporosis, with bone destruction considered to be accelerated. Bone destruction is believed to occur due to an increase in the activation and number of osteoclasts. Experiments have been conducted wherein bone resorption was induced with active type-vitanium D3 stimulation using mouse bone cells dispersed on ivory for the experimental model. The bone resorption inhibitory action of compounds of the present invention was measured using this model.
After isolating the femur and tibia from 10-15 day old ICR mice, the bone specimens were prepared into thin sections in α-MEM medium containing 5% fetal bovine serum to prepare an bone cells suspension containing marrow cells and bone matrix. Large fragments of bone were removed with nylon mesh. Viable total cells were counted with trypan blue exclusion test while osteoclasts were stained with tartaric acid-resistantacid phosphatase stain to prepare a cell suspension containing osteoclasts in a proportion of roughly 0.05-0.1%. The ivory was cut into thin sections having a thickness of 150 μm using a low-speed rotary diamond cutter. The thin sections were then punched to a size that matched the size of the wells of a 96 well plate. These ivory fragments were placed in a 96 well plate followed by addition of the cell suspension prepared above so that each well contained 500 osteoclasts. 10 nM active type-vitamin D3 was added as stimulant simultaneous to addition of the drugs of the present invention at concentrations of 10 μM and 100 μM. After culturing the cells for 4 days at 37° C. in an environment of 10% CO2, the resorption pits that formed on the ivory slices were stained with hematoxylin and counted by observing microscopically. The resorption pit formation inhibition rate was then calculated using the formula indicated below. [formula]
The results were statistically processed using the Student's t-test, and those results that were significant at a level of significance of P<0.05 with respect to an active type-vatanium D3 stimulation control group were indicated with one asterisk (*), while those results that were significant at a level of significance of P<0.01 were indicated with two asterisks (**).

[2] = system: active oxygen production by human neutrophils; assay: Release of active oxygen from fMLP-stimulated human neutrophils (CLA luminescence); format: cell-based; details: Neutrophil, 10 μM compound, fMLP stimulation, read-out: Active Oxygen Production Inhibition Rate
Excerpt: Neutrophils are known to function in the body defense reactions by phagocytosis of foreign bodies to remove them and production of active oxygen and digestive enzymes. However, the active oxygen and digestive enzymes produced by neutrophils also damage normal tissue during chronic inflammations and so forth. Moreover, they are also considered to exacerbate the inflammation. The action of compounds of the present invention was therefore measured with respect to the release of active oxygen from human neutrophils.
50 ml of human blood were drawn from a vein using 3.8% sodium citrate as anticoagulant. Equal volumes of this blood and a physiological saline solution containing 2% dextran were mixed and allowed to stand undisturbed for 30 minutes at 37° C. after shaking several times. The upper layer was separated and layered onto an equal volume of Ficoll-Paque solution. After centrifuging for 30 minutes at 1400 rpm and 20° C., the supernatant was removed and the cells were resuspended with Hanks buffer. […] The maximum amount of light emitted was then determined by a luminometer taking advantage of the phenomenon in which this excited carbonyl form emits light at 380 nm in the process of transition to the ground state. The active oxygen production inhibition rate was then calculated using the formula indicated below. […]

[3] = system: adjuvant arthritis model; assay: Adjuvant Arthritis Test; format: in vivo, 7 week old female Lewis rats; parameters: concentration or dose not given beside the values; details: subcutaneous daily days 8-21; for Bone Destruction Inhibition Rate with respect to control group, Day 22: Day 22, soft X-ray score of left and right hind limbs; for Swelling Inhibition Rate with respect to Control Group, Day 21, Left / Swelling Inhibition Rate with respect to Control Group, Left (day 14 per footnote) / Swelling Inhibition Rate with respect to Control Group, Day 16, Left: left (adjuvant-injected) hind limb; for Swelling Inhibition Rate with respect to Control Group, Left (day 14 per footnote) / Swelling Inhibition Rate with respect to Control Group, Right (day 14 per footnote): day 14 (column head Day 16); for Swelling Inhibition Rate with respect to Control Group, Day 21, Right / Swelling Inhibition Rate with respect to Control Group, Right (day 14 per footnote) / Swelling Inhibition Rate with respect to Control Group, Day 16, Right: right hind limb
Method: Multiple arthritis resembling human chronic articular rheumatism occurs when tubercule bacillus adjuvant is injected into rats. The antiinflammatory, antirheumatic and bone metabolism improving action of compounds of the present invention were investigated according to the following procedure using this adjuvant arthritis model.
0.1 mg of dried non-viable Mycobacterium butyricum cells were suspended in 0.1 ml of liquid paraffin followed by injection into the skin of the left hind limb of 7 week old female Lewis rats. The compounds obtained in the Examples were dissolved in sterilized distilled water and administered subcutaneously every day for two weeks from the 8th to 21st days after injection of adjuvant. During that time, the volumes of the right and left hind limbs were measured and the swelling rate was calculated according to the following formula: [formula]
Moreover, the swelling inhibition rates were also determined according to the following formula, and those values are shown in Table 1. [formula]
Soft X-ray radiographs were taken of the left and right hind limbs of the animals following sacrifice on day 22. The degree of bone destruction at five locations in the left and right hind limbs was evaluated based on the soft X-ray radiographs scoring those results among 5 ranks. Moreover, the bone destruction inhibition rate was calculated using the following formula, and those values are shown in Table 1. [formula]
Those results that were significant at a level of significance of P<0.001 with respect to a control group administered only sterilized distilled water according to the Student's t-test and Chukey's multiple comparison method were indicated with three asterisks (***), those results that were significant at a level of significance of P<0.01 were indicated with two asterisks (**), and those significant at a level of significance of P<0.05 were indicated with one asterisk (*).
The swelling inhibition rates for Example 7 and Example 33 are the values for day 14 and day 21.

[4] = system: IL-1 production by J774-1 mouse macrophage cells; assay: Action on IL-1 Production by Strain J774-1 Mouse Macrophage Cells (LPS stimulated); format: cell-based; details: 100 μM compound, LPS 1 μg/ml, 24 hours, read-out: IL-1 Production Inhibition Rate with respect to Control Group
Method: It is also known that these cells produce IL-1 when stimulated with LPS. The inhibitory action on IL-1 production of compounds of the present invention was measured according to the following procedure using this cell line.
The J774-1 cells were cultured in RPMI-1640 medium containing 10% fetal bovine serum and 50 μM 2-mercaptoethanol followed by adjusting the number of cells to 2×10^5 cells/ml. 1 ml aliquots of this cell suspension were then placed in the wells of a 24 well plate and cultured for 30 minutes. Following culturing, LPS was added to a final concentration of 1 μg/ml. At the same time, compounds obtained in Examples were dissolved in sterilized distilled water and added at a concentration of 100 μM. […]
The samples obtained above were serially diluted by a factor of 2 in a 96 well multiplate at a capacity of 50 μl. […] The thymus cells were then cultured for 72 hours and IL-1 activity was determined from the growth rate of the cells. […] Using the absorbance of the pigment produced by this reduction at 570 nm as the index, the dilution factor of the sample when growth of thymus cells is induced by 50% was calculated in terms of the number of units of that sample by taking the case of induction of maximum growth of T cells by human gene recombinant IL-1 to be 100% growth, and growth in the case of not adding IL-1 to be 0%. […]

| Compound | resorption pit formation Inhibition Rate with respect to Control Group ([1]; 10 μM compound) | resorption pit formation Inhibition Rate with respect to Control Group ([1]; 100 μM compound) | inhibition at 10 µM [2] | Bone Destruction Inhibition Rate with respect to control group, Day 22 [3] | Swelling Inhibition Rate with respect to Control Group, Day 21, Left [3] | Swelling Inhibition Rate with respect to Control Group, Left (day 14 per footnote) [3] | Swelling Inhibition Rate with respect to Control Group, Day 21, Right [3] | Swelling Inhibition Rate with respect to Control Group, Right (day 14 per footnote) [3] | Swelling Inhibition Rate with respect to Control Group, Day 16, Left [3] | Swelling Inhibition Rate with respect to Control Group, Day 16, Right [3] | inhibition at 100 µM [4] |
| --- | --- | --- | --- | --- | --- | --- | --- | --- | --- | --- | --- |
| CSc1ccc(C=C(P(=O)(O)O)P(=O)(O)O)cc1 [Example 28, 2-(4-methylthiophenyl)ethynilidene-1,1-diphosphonic acid] | -0.34 ± 10.1% | 67.8 ± 3.98% |  |  |  |  |  |  |  |  |  |
| CSc1ccccc1SC(P(=O)(O)O)P(=O)(O)O [Example 9, (2-methylthiophenyl)thiomethanediphosphonic Acid] | 35.8 ± 27.0% | 77.8 ± 3.59% | 46.3 ± 0.81% |  |  |  |  |  |  |  |  |
| CSc1ccc(SCCCC(O)(P(=O)(O)O)P(=O)(O)O)cc1 [Example 33, disodium 4-(4-methylthiophenyl)thio-1-hydroxy-butylidene-1,1-diphosphonate] |  |  |  | 77.1% | 138.0% | 115.0% | 66.1% | 63.5% |  |  |  |
| O=P(O)(O)C(Sc1ccc(Sc2ccccc2)cc1)P(=O)(O)O [Example 15, (4-phenylthiophenyl)thiomethanediphosphonic Acid] | 30.5 ± 22.9% | 74.1 ± 4.38% |  | 33.7% | 73.8% |  | 33.7% |  | 75.0% | 28.1% |  |
| CSc1cccc(SC(P(=O)(O)O)P(=O)(O)O)c1 [Example 7, (3-methylthiophenyl)thiomethanediphosphonic Acid] |  |  |  | 43.7% | 72.7% | 48.6% | 24.2% | 15.0% |  |  |  |
| CC(C)Sc1ccc(SC(P(=O)(O)O)P(=O)(O)O)cc1 [Example 13, (4-isopropylthiophenyl)thiomethanediphosphonic Acid] | 54.6 ± 10.4% | 92.5 ± 0.61% |  | 62.5% | 91.8% |  | 28.7% |  | 76.9% | 16.8% | 38.6% |
| CSc1ccc(CC(P(=O)(O)O)P(=O)(O)O)cc1 [Example 30, 2-(4-methylthiophenyl)ethane-1,1-diphosphonic acid] | 35.6 ± 11.3% | 87.0 ± 4.34% |  |  |  |  |  |  |  |  |  |
